Measurements reported in ChEMBL document CHEMBL1201862, “PubChem BioAssay data set” (2004).
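Each compound was tested at five concentrations against cells in 96-well plates for 48 hours. GI50: concentration for 50% inhibition of growth.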 Activity calls are given as the source filed them. No stated cut-off is given here; in the data, active = GI50 up to about 1.1 µM and inactive = higher.

Legend:
Assay in all cases: NCI-60 cell line screen, 48 h
M19-MEL = tested on: M19-MEL
M14 = tested on: M14
SW-620 = tested on: SW-620
HOP-62 = tested on: HOP-62
HL-60 = tested on: HL-60
RXF 393 = tested on: RXF 393
KM-20L2 = tested on: KM-20L2
A549 = tested on: A549
IGROV-1 = tested on: IGROV-1
NCI-H23 = tested on: NCI-H23
EKVX = tested on: EKVX
SK-MEL-2 = tested on: SK-MEL-2
DMS-114 = tested on: DMS-114
HCC 2998 = tested on: HCC 2998
CCRF-CEM = tested on: CCRF-CEM
SK-MEL-28 = tested on: SK-MEL-28
OVCAR-8 = tested on: OVCAR-8
COLO 205 = tested on: COLO 205
OVCAR-3 = tested on: OVCAR-3
UO-31 = tested on: UO-31
HT-29 = tested on: HT-29
SNB-75 = tested on: SNB-75
SK-OV-3 = tested on: SK-OV-3
LXFL 529 = tested on: LXFL 529
SN12C = tested on: SN12C
UACC-257 = tested on: UACC-257
UACC-62 = tested on: UACC-62
K562 = tested on: K562
TK-10 = tested on: TK-10
MOLT-4 = tested on: MOLT-4
A498 = tested on: A498
NCI-H522 = tested on: NCI-H522
SF-268 = tested on: SF-268
ACHN = tested on: ACHN
SF-295 = tested on: SF-295
HOP-18 = tested on: HOP-18
SNB-19 = tested on: SNB-19
RPMI-8226 = tested on: RPMI-8226
U-251 = tested on: U-251
HCT-116 = tested on: HCT-116
SF-539 = tested on: SF-539
DLD-1 = tested on: DLD-1
OVCAR-4 = tested on: OVCAR-4
NCI-H460 = tested on: NCI-H460
Malme-3M = tested on: Malme-3M
KM12 = tested on: KM12
HOP-92 = tested on: HOP-92
DMS-273 = tested on: DMS-273
786-0 = tested on: 786-0
HCT-15 = tested on: HCT-15
SNB-78 = tested on: SNB-78
OVCAR-5 = tested on: OVCAR-5
SK-MEL-5 = tested on: SK-MEL-5
CAKI-1 = tested on: CAKI-1
NCI-H226 = tested on: NCI-H226
LOX IMVI = tested on: LOX IMVI
XF498 = tested on: XF498
SR = tested on: SR

Measured: GI50

O=C(CNc1nncs1)NO
inactive: M19-MEL > 100 µM | M14 > 100 µM | SW-620 > 100 µM | HOP-62 > 100 µM | HL-60 > 100 µM | RXF 393 > 100 µM | KM-20L2 > 100 µM | A549 > 100 µM | IGROV-1 > 100 µM | NCI-H23 > 100 µM | EKVX > 100 µM | SK-MEL-2 > 100 µM | DMS-114 54.3 µM | HCC 2998 > 100 µM | CCRF-CEM > 10 µM | SK-MEL-28 > 100 µM | OVCAR-8 > 100 µM | COLO 205 > 100 µM | OVCAR-3 > 100 µM | UO-31 > 100 µM | HT-29 84.3 µM | SNB-75 > 100 µM | SK-OV-3 > 100 µM | LXFL 529 > 100 µM | SN12C > 100 µM | UACC-257 > 100 µM | UACC-62 > 100 µM | K562 > 100 µM | TK-10 > 100 µM | MOLT-4 > 100 µM | A498 > 100 µM | NCI-H522 > 100 µM | SF-268 > 100 µM | ACHN > 100 µM | SF-295 > 100 µM | HOP-18 > 100 µM | SNB-19 > 100 µM | RPMI-8226 > 100 µM | U-251 > 100 µM | HCT-116 > 100 µM | SF-539 > 100 µM | DLD-1 > 100 µM | OVCAR-4 > 100 µM | NCI-H460 > 100 µM | Malme-3M > 100 µM | KM12 > 100 µM | HOP-92 38.2 µM | DMS-273 > 100 µM | 786-0 > 100 µM | SNB-78 > 100 µM | OVCAR-5 > 100 µM
> 100 µM: HCT-15

CCOC(=O)C1N(S(=O)(=O)c2ccc(C)cc2)CCC12c1ccccc1N(C(C)=O)C2c1ccc(OC)c(OC)c1 (configuration not stated)
inactive: SK-MEL-5 > 100 µM | M19-MEL > 100 µM | CAKI-1 76.7 µM | M14 > 100 µM | SW-620 > 100 µM | HOP-62 > 100 µM | HL-60 48.1 µM | RXF 393 > 100 µM | KM-20L2 > 100 µM | A549 > 100 µM | IGROV-1 > 100 µM | NCI-H226 19.9 µM | LOX IMVI > 100 µM | NCI-H23 > 100 µM | EKVX > 100 µM | DMS-114 > 100 µM | HCC 2998 > 100 µM | CCRF-CEM > 100 µM | SK-MEL-28 > 100 µM | OVCAR-8 > 100 µM | COLO 205 > 100 µM | OVCAR-3 > 100 µM | UO-31 42.7 µM | HT-29 > 100 µM | SNB-75 74 µM | XF498 21.7 µM | SK-OV-3 > 100 µM | LXFL 529 > 100 µM | SN12C > 100 µM | UACC-257 > 100 µM | UACC-62 > 100 µM | K562 80.7 µM | TK-10 > 100 µM | A498 > 100 µM | NCI-H522 > 100 µM | SF-268 > 100 µM | ACHN > 100 µM | SF-295 > 100 µM | SNB-19 > 100 µM | RPMI-8226 65.5 µM | U-251 > 100 µM | HCT-116 47.4 µM | SF-539 > 100 µM | DLD-1 78.2 µM | OVCAR-4 71.1 µM | NCI-H460 > 100 µM | Malme-3M > 100 µM | KM12 > 100 µM | HOP-92 47.8 µM | DMS-273 > 100 µM | 786-0 > 100 µM | SNB-78 > 100 µM | OVCAR-5 > 100 µM

CC(C)OP(=O)(OC(C)C)/C(I)=N/Nc1ccc([N+](=O)[O-])cc1
> 100 µM: HCT-15
inactive: SK-MEL-5 > 100 µM | M19-MEL > 100 µM | CAKI-1 > 100 µM | M14 > 100 µM | SW-620 > 100 µM | HOP-62 > 100 µM | HL-60 > 100 µM | KM-20L2 > 100 µM | A549 > 100 µM | IGROV-1 > 100 µM | NCI-H23 > 100 µM | EKVX > 100 µM | SK-MEL-2 > 100 µM | DMS-114 > 100 µM | HCC 2998 > 100 µM | CCRF-CEM > 100 µM | SK-MEL-28 > 100 µM | SR > 100 µM | OVCAR-8 > 100 µM | COLO 205 > 100 µM | OVCAR-3 > 100 µM | UO-31 98.4 µM | HT-29 > 100 µM | SNB-75 > 100 µM | XF498 > 100 µM | SK-OV-3 > 100 µM | LXFL 529 > 100 µM | SN12C > 100 µM | UACC-257 > 100 µM | UACC-62 > 100 µM | K562 > 100 µM | TK-10 > 100 µM | MOLT-4 > 100 µM | A498 > 100 µM | NCI-H522 > 100 µM | SF-268 > 100 µM | ACHN > 100 µM | SF-295 > 100 µM | SNB-19 > 100 µM | RPMI-8226 > 100 µM | U-251 > 100 µM | HCT-116 > 100 µM | SF-539 > 100 µM | DLD-1 > 100 µM | OVCAR-4 > 100 µM | NCI-H460 > 100 µM | Malme-3M > 100 µM | KM12 > 100 µM | HOP-92 > 100 µM | DMS-273 > 100 µM | SNB-78 > 100 µM | OVCAR-5 > 100 µM

CC(C(=O)c1ccccc1)C1(O)C(=O)Nc2ccc(Cl)cc21 (configuration not stated)
active: UO-31 0.469 µM
inactive: M19-MEL 16.7 µM | CAKI-1 > 100 µM | M14 > 100 µM | SW-620 49.1 µM | HOP-62 > 100 µM | RXF 393 > 100 µM | KM-20L2 > 100 µM | A549 > 100 µM | IGROV-1 > 100 µM | NCI-H226 > 100 µM | LOX IMVI 50.6 µM | NCI-H23 > 100 µM | EKVX > 100 µM | SK-MEL-2 > 100 µM | DMS-114 56.8 µM | HCC 2998 > 100 µM | SK-MEL-28 > 100 µM | OVCAR-8 > 100 µM | COLO 205 > 100 µM | OVCAR-3 37.4 µM | HT-29 75.7 µM | SNB-75 > 100 µM | XF498 > 100 µM | SK-OV-3 > 100 µM | LXFL 529 72.3 µM | SN12C > 100 µM | UACC-257 31.6 µM | UACC-62 42.2 µM | TK-10 > 100 µM | A498 > 100 µM | SF-268 > 100 µM | ACHN > 100 µM | SF-295 > 100 µM | HOP-18 12.8 µM | SNB-19 > 100 µM | RPMI-8226 48 µM | U-251 53.8 µM | HCT-116 > 100 µM | SF-539 > 100 µM | DLD-1 > 100 µM | OVCAR-4 19.2 µM | NCI-H460 > 100 µM | Malme-3M > 100 µM | KM12 > 100 µM | HOP-92 > 100 µM | 786-0 40.3 µM | SNB-78 > 100 µM | OVCAR-5 > 100 µM
81.8 µM: HCT-15

CC[C@@]1(O)C[C@H](OC2CC(N(C)C)C(OC3CC(O)C(OC4CCC(=O)C(C)O4)C(C)O3)C(C)O2)c2c(cc3c(c2O)C(=O)c2c(O)cccc2C3=O)[C@H]1C(=O)OC (some centres not stated)
active: HL-60 0.0317 µM | KM-20L2 0.0128 µM | CCRF-CEM 0.0184 µM | HT-29 0.0147 µM | LXFL 529 0.00904 µM | HOP-18 0.0736 µM | RPMI-8226 0.0278 µM | DLD-1 0.0327 µM

O=C1Nc2ccccc2/C1=N/NC(=O)c1ccccc1O
inactive: M19-MEL 53 µM | M14 50.1 µM | SW-620 46.8 µM | HOP-62 57.3 µM | HL-60 27.7 µM | RXF 393 16.6 µM | KM-20L2 > 100 µM | A549 55.3 µM | NCI-H226 33.2 µM | LOX IMVI 48.4 µM | NCI-H23 24.5 µM | EKVX 68.5 µM | SK-MEL-2 23 µM | DMS-114 43.4 µM | HCC 2998 23 µM | CCRF-CEM 33.4 µM | SK-MEL-28 60.5 µM | OVCAR-8 44.5 µM | COLO 205 > 100 µM | OVCAR-3 85.3 µM | UO-31 28.2 µM | HT-29 82.2 µM | SNB-75 19.8 µM | SK-OV-3 12.1 µM | LXFL 529 41.3 µM | SN12C 35.2 µM | UACC-257 44 µM | UACC-62 36.1 µM | K562 40.9 µM | TK-10 65.9 µM | MOLT-4 29 µM | A498 23.5 µM | NCI-H522 39.7 µM | SF-268 44.4 µM | ACHN 21.8 µM | SF-295 27.9 µM | HOP-18 56 µM | SNB-19 62.2 µM | RPMI-8226 56.5 µM | U-251 23.2 µM | HCT-116 36.8 µM | SF-539 41.4 µM | DLD-1 29.3 µM | OVCAR-4 75.5 µM | NCI-H460 34.8 µM | Malme-3M 35.1 µM | KM12 33.7 µM | 786-0 53.3 µM | SNB-78 99.8 µM | OVCAR-5 > 100 µM
32.6 µM: HCT-15
